Assay results published in the supplement of paper PMC9663587.

Legend:
[1] = compound: CCN1CCN(Cc2ccc(Nc3ncc(F)c(-c4cc(F)c5nc(C)n(C(C)C)c5c4)n3)nc2)CC1; test: increase in dead-cell fraction, 72 h; higher = more death;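 further: breast cancer cell lines in 384-well plates, stained with Hoechst plus LIVE/DEAD far red dye and imaged, cells above an LDR intensity threshold counted dead, Hoechst-negative corpses included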
Flavopiridol [2] = compound: T1, CN1CC[C@H](c2c(O)cc(O)c3c(=O)cc(-c4ccccc4Cl)oc23)[C@H](O)C1 [Flavopiridol]; test: as above
YKL-5-124 = compound: C=CC(=O)Nc1ccc(C(=O)Nc2[nH]nc3c2CN(C(=O)N[C@H](CN(C)C)c2ccccc2)C3(C)C)cc1 [YKL-5-124]; test: GR value, 72 h; higher = faster growth (1 = untreated, <0 = killing);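 further: breast cancer and non-malignant breast epithelial lines, nine half-log doses, viable cells counted by Hoechst and LIVE/DEAD dye imaging versus time-zero plates and DMSO controls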
BSJ-03-123 = compound: CC(=O)c1c(C)c2cnc(Nc3ccc(N4CCN(CCOCCOCCOCCNC(=O)COc5cccc6c5C(=O)N(C5CCC(=O)NC5=O)C6=O)CC4)cn3)nc2n(C2CCCC2)c1=O [BSJ-03-123]; test: as above
[3] = compound: CC(=O)c1c(C)c2cnc(Nc3ccc(N4CCNCC4)cn3)nc2n(C2CCCC2)c1=O; test: as above
[4] = compound: CCN1CCN(Cc2ccc(Nc3ncc(F)c(-c4cc(F)c5nc(C)n(C(C)C)c5c4)n3)nc2)CC1; test: as above
Neratinib/HKI272 = compound: CCOc1cc2ncc(C#N)c(Nc3ccc(OCc4ccccn4)c(Cl)c3)c2cc1NC(=O)/C=C/CN(C)C [Neratinib/HKI272]; test: as above
[5] = compound: CCc1cnn2c(NCc3ccc[n+]([O-])c3)cc(N3CCCC[C@H]3CCO)nc12; test: as above
LEE011/Ribociclib = compound: CN(C)C(=O)c1cc2cnc(Nc3ccc(N4CCNCC4)cn3)nc2n1C1CCCC1 [LEE011/Ribociclib]; test: as above
THZ531 = compound: CN(C)C/C=C/C(=O)Nc1ccc(C(=O)N2CCC[C@@H](Nc3ncc(Cl)c(-c4c[nH]c5ccccc45)n3)C2)cc1 [THZ531]; test: as above
THZ1 = compound: CN(C)C/C=C/C(=O)Nc1ccc(C(=O)Nc2cccc(Nc3ncc(Cl)c(-c4c[nH]c5ccccc45)n3)c2)cc1 [THZ1]; test: as above
Flavopiridol [6] = compound: T1, Flavopiridol; test: as above

MCF7
increase in dead-cell fraction ([1]; 0.001 µM): 0.0009
increase in dead-cell fraction ([1]; 0.003162 µM): 0.0022
increase in dead-cell fraction ([1]; 0.01 µM): 0.0141
increase in dead-cell fraction ([1]; 0.03162 µM): 0.0241
increase in dead-cell fraction ([1]; 0.1 µM): 0.0305
increase in dead-cell fraction ([1]; 0.3162 µM): 0.0363
increase in dead-cell fraction ([1]; 1 µM): 0.0543
increase in dead-cell fraction ([1]; 3.162 µM): 0.277
increase in dead-cell fraction ([1]; 10 µM): 0.373
increase in dead-cell fraction (Flavopiridol [2]; 0.0001 µM): -0.0023
increase in dead-cell fraction (Flavopiridol [2]; 0.0003162 µM): 0.0009
increase in dead-cell fraction (Flavopiridol [2]; 0.001 µM): 0.0003
increase in dead-cell fraction (Flavopiridol [2]; 0.003162 µM): 0.0007
increase in dead-cell fraction (Flavopiridol [2]; 0.01 µM): 0.0049
increase in dead-cell fraction (Flavopiridol [2]; 0.03162 µM): 0.0017
increase in dead-cell fraction (Flavopiridol [2]; 0.1 µM): 0.0144
increase in dead-cell fraction (Flavopiridol [2]; 0.3162 µM): 0.257
increase in dead-cell fraction (Flavopiridol [2]; 1 µM): 0.183
GR value (YKL-5-124; 0.001 µM): 0.557 GR
GR value (YKL-5-124; 0.003162 µM): 0.403 GR
GR value (YKL-5-124; 0.01 µM): 0.316 GR
GR value (YKL-5-124; 0.03162 µM): 0.266 GR
GR value (YKL-5-124; 0.1 µM): 0.18 GR
GR value (YKL-5-124; 0.3162 µM): 0.0831 GR
GR value (YKL-5-124; 1 µM): 0.131 GR
GR value (YKL-5-124; 3.162 µM): 0.0763 GR
GR value (YKL-5-124; 10 µM): -0.269 GR
GR value (BSJ-03-123; 0.001 µM): 0.928 GR
GR value (BSJ-03-123; 0.003162 µM): 0.899 GR
GR value (BSJ-03-123; 0.01 µM): 0.858 GR
GR value (BSJ-03-123; 0.03162 µM): 0.784 GR
GR value (BSJ-03-123; 0.1 µM): 0.789 GR
GR value (BSJ-03-123; 0.3162 µM): 0.727 GR
GR value (BSJ-03-123; 1 µM): 0.604 GR
GR value (BSJ-03-123; 3.162 µM): 0.544 GR
GR value (BSJ-03-123; 10 µM): -0.327 GR
GR value ([3]; 0.0003162 µM): 1.04 GR
GR value ([3]; 0.001 µM): 1.02 GR
GR value ([3]; 0.003162 µM): 0.962 GR
GR value ([3]; 0.01 µM): 0.85 GR
GR value ([3]; 0.03162 µM): 0.626 GR
GR value ([3]; 0.1 µM): 0.476 GR
GR value ([3]; 0.3162 µM): 0.355 GR
GR value ([3]; 1 µM): 0.297 GR
GR value ([3]; 3.162 µM): 0.254 GR
GR value ([4]; 0.001 µM): 0.893 GR
GR value ([4]; 0.003162 µM): 0.789 GR
GR value ([4]; 0.01 µM): 0.512 GR
GR value ([4]; 0.03162 µM): 0.349 GR
GR value ([4]; 0.1 µM): 0.236 GR
GR value ([4]; 0.3162 µM): 0.235 GR
GR value ([4]; 1 µM): 0.0993 GR
GR value ([4]; 3.162 µM): -0.189 GR
GR value ([4]; 10 µM): -0.268 GR
GR value (Neratinib/HKI272; 0.0003162 µM): 1.04 GR
GR value (Neratinib/HKI272; 0.001 µM): 1.03 GR
GR value (Neratinib/HKI272; 0.003162 µM): 0.998 GR
GR value (Neratinib/HKI272; 0.01 µM): 0.951 GR
GR value (Neratinib/HKI272; 0.03162 µM): 0.947 GR
GR value (Neratinib/HKI272; 0.1 µM): 0.931 GR
GR value (Neratinib/HKI272; 0.3162 µM): 0.774 GR
GR value (Neratinib/HKI272; 1 µM): 0.657 GR
GR value (Neratinib/HKI272; 3.162 µM): 0.0611 GR
GR value ([5]; 0.0001 µM): 1.02 GR
GR value ([5]; 0.0003162 µM): 0.997 GR
GR value ([5]; 0.001 µM): 0.979 GR
GR value ([5]; 0.003162 µM): 0.967 GR
GR value ([5]; 0.01 µM): 0.3 GR
GR value ([5]; 0.03162 µM): -0.247 GR
GR value ([5]; 0.1 µM): -0.276 GR
GR value ([5]; 0.3162 µM): -0.241 GR
GR value ([5]; 1 µM): -0.255 GR
GR value (LEE011/Ribociclib; 0.001 µM): 0.87 GR
GR value (LEE011/Ribociclib; 0.003162 µM): 0.786 GR
GR value (LEE011/Ribociclib; 0.01 µM): 0.682 GR
GR value (LEE011/Ribociclib; 0.03162 µM): 0.651 GR
GR value (LEE011/Ribociclib; 0.1 µM): 0.53 GR
GR value (LEE011/Ribociclib; 0.3162 µM): 0.414 GR
GR value (LEE011/Ribociclib; 1 µM): 0.407 GR
GR value (LEE011/Ribociclib; 3.162 µM): 0.275 GR
GR value (LEE011/Ribociclib; 10 µM): 0.295 GR
GR value (THZ531; 0.0001 µM): 0.957 GR
GR value (THZ531; 0.0003162 µM): 1.06 GR
GR value (THZ531; 0.001 µM): 0.957 GR
GR value (THZ531; 0.003162 µM): 1.02 GR
GR value (THZ531; 0.01 µM): 1.08 GR
GR value (THZ531; 0.03162 µM): 0.827 GR
GR value (THZ531; 0.1 µM): 0.225 GR
GR value (THZ531; 0.3162 µM): -0.0791 GR
GR value (THZ531; 1 µM): -0.391 GR
GR value (THZ1; 0.0001 µM): 1.08 GR
GR value (THZ1; 0.0003162 µM): 0.931 GR
GR value (THZ1; 0.001 µM): 0.926 GR
GR value (THZ1; 0.003162 µM): 0.941 GR
GR value (THZ1; 0.01 µM): 0.78 GR
GR value (THZ1; 0.03162 µM): 0.366 GR
GR value (THZ1; 0.1 µM): -0.103 GR
GR value (THZ1; 0.3162 µM): -0.305 GR
GR value (THZ1; 1 µM): -0.461 GR
GR value (Flavopiridol [6]; 0.0001 µM): 1.08 GR
GR value (Flavopiridol [6]; 0.0003162 µM): 0.929 GR
GR value (Flavopiridol [6]; 0.001 µM): 0.872 GR
GR value (Flavopiridol [6]; 0.003162 µM): 0.964 GR
GR value (Flavopiridol [6]; 0.01 µM): 0.873 GR
GR value (Flavopiridol [6]; 0.03162 µM): 0.834 GR
GR value (Flavopiridol [6]; 0.1 µM): 0.424 GR
GR value (Flavopiridol [6]; 0.3162 µM): -0.258 GR
GR value (Flavopiridol [6]; 1 µM): -0.272 GR
